Test results from patent US20220144812A1, “QUINOLINE DERIVATIVES AND THEIR USE FOR THE TREATMENT OF CANCER” (Epizyme, Inc., priority 2019, published 2022).
Where two headings read alike, the source gives them in different places.

Columns and labels:
EP300 (P300(1048-1664)) = molecular target: T1, EP300 (P300(1048-1664)) (Homo sapiens, UniProt Q09472); experiment: Biochemical assay for EP300, SAMDI; conditions: read-out: EP300 Biochemistry IC50
T1 construct: P300(1048-1664)
T1 sequence (Q09472 1048-1664): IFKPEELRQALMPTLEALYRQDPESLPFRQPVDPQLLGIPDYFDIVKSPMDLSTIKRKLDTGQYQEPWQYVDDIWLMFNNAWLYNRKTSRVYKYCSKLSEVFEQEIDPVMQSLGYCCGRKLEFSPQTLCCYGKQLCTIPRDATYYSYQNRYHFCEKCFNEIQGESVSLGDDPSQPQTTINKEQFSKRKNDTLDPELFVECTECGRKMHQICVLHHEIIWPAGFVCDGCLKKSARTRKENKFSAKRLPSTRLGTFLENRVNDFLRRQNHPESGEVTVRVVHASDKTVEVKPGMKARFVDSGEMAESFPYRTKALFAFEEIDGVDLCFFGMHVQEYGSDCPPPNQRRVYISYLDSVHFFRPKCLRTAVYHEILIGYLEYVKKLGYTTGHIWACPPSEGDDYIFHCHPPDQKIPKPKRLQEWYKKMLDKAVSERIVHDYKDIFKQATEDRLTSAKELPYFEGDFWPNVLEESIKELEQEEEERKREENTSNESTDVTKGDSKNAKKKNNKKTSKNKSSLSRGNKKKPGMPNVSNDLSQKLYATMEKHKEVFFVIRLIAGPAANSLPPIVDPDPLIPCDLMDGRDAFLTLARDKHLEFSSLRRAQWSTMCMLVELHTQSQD
Excerpt: The following example describes materials and methods relating to a biochemical assay for EP300. IC50 values (micromolar (μM)) are summarized in Table 1, Table 2, and Table 3 under the column labeled: “EP300 Biochemistry IC50 (micromolar).”

CREBBP (1084-1701) = molecular target: T2, CREBBP (1084-1701) (Homo sapiens, UniProt Q92793); experiment: Biochemical assay for CREBBP (1084-1701), SAMDI; conditions: read-out: CREBBP Biochemistry IC50
T2 construct: measured in the following biochemical assay using CREBBP (1084-1701); purchased
T2 sequence (Q92793 1084-1701): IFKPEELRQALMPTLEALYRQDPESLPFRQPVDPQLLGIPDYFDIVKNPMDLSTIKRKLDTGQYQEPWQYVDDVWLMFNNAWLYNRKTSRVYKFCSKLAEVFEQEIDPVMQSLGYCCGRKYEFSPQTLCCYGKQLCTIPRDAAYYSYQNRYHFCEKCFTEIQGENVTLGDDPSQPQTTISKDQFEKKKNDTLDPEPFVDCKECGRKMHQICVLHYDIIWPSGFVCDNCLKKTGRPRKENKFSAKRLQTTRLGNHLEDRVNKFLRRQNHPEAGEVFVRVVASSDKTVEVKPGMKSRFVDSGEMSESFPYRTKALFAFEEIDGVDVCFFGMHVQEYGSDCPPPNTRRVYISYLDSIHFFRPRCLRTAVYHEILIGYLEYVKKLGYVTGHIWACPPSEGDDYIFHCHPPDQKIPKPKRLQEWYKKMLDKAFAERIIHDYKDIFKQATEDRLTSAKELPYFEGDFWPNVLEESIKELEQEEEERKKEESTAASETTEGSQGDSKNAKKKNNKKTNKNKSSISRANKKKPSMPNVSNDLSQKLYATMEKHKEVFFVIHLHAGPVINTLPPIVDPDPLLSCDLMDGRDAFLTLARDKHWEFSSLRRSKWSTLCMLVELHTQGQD
Outline: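 Acetyltransferase activity measured by SAMDI mass spectrometry after capture on biochip. Enzyme sat with compound 30 min at RT before acetyl-CoA and biotinylated H3 11-25 (K14R, K23R) peptide were added for 30 min at RT. Formic acid quench, bicarbonate neutralisation; IC50 values reported.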

[1] = test system: H3K18Ac in HB-CLS-2 cells; experiment: H3K18AC in-cell western (ICW) assay; assay type: cell-based; conditions: read-out: CREBBP ICW IC50
Outline: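 In-cell western: after methanol fixation, blocking, overnight 4° C anti-H3K18Ac staining, then 800CW secondary plus DRAQ5 for DNA content, integrated intensities were scanned at 800 and 700 nm. Before this, compound exposure lasted 2 hr at 37° C in HB-CLS-2 cells plated 16–24 hours earlier. Values expressed as IC50 (μM).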

647V cells = experiment: High throughput proliferation (HTP) assay; assay type: cell-based; conditions: read-out: CREBBP HTP IC50
Excerpt: The following example describes methods and materials relating to a high throughput proliferation (HTP) assay. IC50 values (micromolar) are summarized in Table 1, Table 2, and Table 3 under the column labeled: “CREBBP HTP IC50 (micromolar).”
MATERIALS: 647V cell line, Dulbecco's MEM, penicillin-streptomycin, heat inactivated fetal bovine serum, D-PBS, and CellTiter-Glo were commercially available.
647V adherent cells were maintained in complete growth medium (Dulbecco's MEM supplemented with 15% v/v heat inactivated fetal bovine serum) and cultured at 37° C. under 5% CO2.
METHOD: Measurement of the effect of compound in High Throughput Proliferation (HTP) assays was performed as follows: Exponentially growing 647V cells were plated, in triplicate, in 384-well plates at the appropriate cell density in a final volume of 50 μl. Cells were incubated in the presence of increasing concentrations of compound. Viable cell number was determined at day 7 by addition of 35 μl CellTiter-Glo to each well of the plate, incubated in the dark for 30 minutes, and read on a PerkinElmer EnVision instrument to enumerate the number of cells.

[2] = Homo sapiens, 647-V, high throughput proliferation
[3] = P300(1048-1664), Peptide #233, Ac-CoA, SAMDI mass spectrometry
[4] = Peptide #233, Acetyl-CoA, SAMDI mass spectrometry
[5] = 2 h, H3K18Ac in HB-CLS-2 cells, 2 hrs compound incubation
[6] = Homo sapiens, 647-V, 168 h, 647V cells, day 7, CellTiter-Glo

Row | IC50 (EP300 (P300(1048-1664)); EP300, SAMDI) [nM] | IC50 (CREBBP (1084-1701); SAMDI) [nM] | IC50 ([1]; H3K18Ac in-cell western) [nM] | IC50 (EP300 (P300(1048-1664)); [3]) [nM] | IC50 (CREBBP (1084-1701); [4]) [nM] | IC50 [1, 5] [nM] | SMILES | IC50 (647V cells; [2]) [nM] | IC50 ([1]; H3K18Ac in-cell western, HB-CLS-2 cells) [nM] | IC50 (647V cells; high throughput proliferation, 647V cells) [nM] | IC50 (647V cells; high throughput proliferation) [nM] | IC50 (647V cells; [6]) [nM]
1 | 628 | 170 | 919 |  |  |  | CCn1ncc(CN(C)C(=O)c2nc(-c3cc(C)c4nc[nH]c4c3)nc3ccc(COC)cc23)c1C [Compound 439] | 752 |  |  |  | 
2 | 3380 | 6510 | 3270 |  |  |  | CCn1ncc([C@H](C)N(C)C(=O)c2cc(-c3ccc(NCCNC)c(C)n3)nc3ccc(Cl)cc23)c1C [Compound 607] | 1970 |  |  |  | 
3 | 1500 | 740 | 1900 |  |  |  | CCn1ncc(CN(C)C(=O)c2nc(-c3ccc(OCCOC)cc3Cl)nc3ccc(Cl)cc23)c1C [Compound 96] | 1800 |  |  |  | 
4 | 120 | 60 | 170 |  |  |  | CCn1ncc(CN(C)C(=O)c2nc(-c3cc4[nH]cnc4cc3C)nc3ccc(Cl)cc23)c1C [Compound 17] | 130 |  |  |  | 
5 | 1050 | 1060 | 603 |  |  |  | CCn1ncc(CN(C)C(=O)c2nc(-c3cc4[nH]ncc4nc3C)nc3ccc(Cl)cc23)c1C [Compound 528] | 1110 |  |  |  | 
6 | 1460 | 1430 | 1050 |  |  |  | CCn1ncc(CN(C)C(=O)c2nc(-c3cc(C)c4c(c3)NCCN4)nc3ccc(Cl)cc23)c1C [Compound 458] | 523 |  |  |  | 
7 | 974 | 920 | 888 |  |  |  | CCn1ncc(CN(C)C(=O)c2nc(-c3cc(C#N)c4nc[nH]c4c3)nc3ccc(COC)cc23)c1C [Compound 475] | 757 |  |  |  | 
8 | 7.1 | 10 | 80.4 |  |  |  | CCn1ncc(CN(C)C(=O)c2cc(-c3ccc(NCCO)c(C)n3)nc3ccc(Cl)cc23)c1C [Compound 521] | 110 |  |  |  | 
9 | 734 | 336 | 403 |  |  |  | CCc1cc(CN(C)C(=O)c2cc(-c3ccc(NCCN(C)C)c(C)n3)nc3ccc(Cl)cc23)on1 [Compound 590] | 390 |  |  |  | 
10 | 8000 | 18000 | 13000 |  |  |  | CCn1ncc(CN(C)C(=O)c2nc(N3CCc4[nH]cnc4C3)nc3ccc(Cl)cc23)c1C [Compound 167] | 11000 |  |  |  | 
11 | 11.1 | 25.4 | 428 |  |  |  | CCc1ncc(CN(C)C(=O)c2cc(-c3ccc(NCC(O)CNC)c(C)n3)nc3ccc(Cl)cc23)n1C (centres unmarked) [Compound 571] | 118 |  |  |  | 
12 | 9.3 | 25.8 | 65.5 |  |  |  | CCn1ncc(CN(C)C(=O)c2cc(-c3cc(C4=NCCN4)n(C)n3)nc3ccc(Cl)cc23)c1C [Compound 582] | 122 |  |  |  | 
13 | 1430 | 3320 | 513 |  |  |  | CCn1ncc(CN(C)C(=O)c2nc(-c3cnc4c[nH]nc4c3)nc3ccc(Cl)cc23)c1C [Compound 581] | 839 |  |  |  | 
14 | 140 | 28 | 260 |  |  |  | CCn1ncc(CN(C)C(=O)c2nc(-c3ccc(OCCCNC(C)C)c(C)c3)nc3ccc(Cl)cc23)c1C [Compound 31] | 130 |  |  |  | 
15 | 9.1 | 32.4 | 171 |  |  |  | CCn1ncc(CN(C)C(=O)c2cc(-c3ccc(NCC(F)(F)CNC)c(C)n3)nc3ccc(Cl)cc23)c1C [Compound 534] | 228 |  |  |  | 
16 | 2360 | 3910 | 4830 |  |  |  | CCn1ncc(CN(C)C(=O)c2nc(-c3ccc(OCCNC)c(Cl)c3)nc3ccc(S(C)(=O)=O)cc23)c1C [Compound 453] | 1200 |  |  |  | 
17 | 10.9 | 19.3 | 56.1 |  |  |  | CCn1ncc(CN(C)C(=O)c2nc(-c3cc(C)nc(NCCN(C)C)c3)nc3ccc(Cl)cc23)c1C [Compound 469] | 29.2 |  |  |  | 
18 | 137 | 27 | 153 |  |  |  | CCn1ncc(CN(C)C(=O)c2nc(-c3cc(NC)c4cn[nH]c4c3)nc3ccc(Cl)cc23)c1C [Compound 551] | 233 |  |  |  | 
19 | 4300 | 4500 | 3600 |  |  |  | CCn1ncc(CN(C)C(=O)c2cc(-c3ccc(OCC(=O)NC)c(OC)c3)nc3ccc(Cl)cc23)c1C [Compound 122] | 2100 |  |  |  | 
20 | 6.5 | 19.1 | 58.2 |  |  |  | CCc1ncc(CN(C)C(=O)c2cc(-c3ccc(NC4CN(C)C4)c(C)n3)nc3ccc(Cl)cc23)n1C [Compound 561] | 22.8 |  |  |  | 
21 | 36.7 | 50.3 | 269 |  |  |  | CCn1ncc(CN(C)C(=O)c2nc(-c3ccc(OCCNC)c(Cl)c3)nc3ccc(C(F)F)cc23)c1C [Compound 441] | 216 |  |  |  | 
22 |  |  |  | 9.1 | 28.1 | 86.6 | CCc1ncc(CN(C)C(=O)c2cc(-c3ccc(NC4CCN(C)C4)c(C)n3)nc3ccc(Cl)cc23)n1C (centres unmarked) [Compound 642] |  |  |  |  | 33.4
23 | 11 | 15 | 90 |  |  |  | CCn1ncc(CN(C)C(=O)c2nc(-c3cc(C#N)cc(NCCNC)c3)nc3ccc(Cl)cc23)c1C [Compound 9] | 51 |  |  |  | 
24 |  |  |  | 8.8 | 16.7 | 125 | CCc1ncc(CN(C)C(=O)c2nc(-c3cc(-c4ncc[nH]4)n(C)n3)nc3ccc(Cl)cc23)n1C [Compound 631] |  |  |  |  | 194
25 | 55000 | 115000 | 18000 |  |  |  | CCn1ncc(CN(C)C(=O)c2nc(-n3cc4c(n3)CNCC4)nc3ccc(Cl)cc23)c1C [Compound 179] | 20000 |  |  |  | 
26 | 2160 | 2020 | 2150 |  |  |  | CCc1onc(CN(C)C(=O)c2cc(-c3ccc(NCCNC)c(C)n3)nc3ccc(Cl)cc23)c1C [Compound 548] | 1860 |  |  |  | 
27 | 4300 | 270 | 3000 |  |  |  | CCn1ncc(CN(C)C(=O)c2nc(-c3ccc(OCCNC(=O)OC(C)(C)C)c(Cl)c3)nc3ccc(Cl)cc23)c1C [Compound 117] | 2400 |  |  |  | 
28 | 282 | 105 | 316 |  |  |  | Cc1nc(-c2cc(C(=O)N(C)Cc3cnc(C(F)(F)F)n3C)c3cc(Cl)ccc3n2)ccc1NCCN(C)C [Compound 598] | 283 |  |  |  | 
29 | 493 | 73.6 | 345 |  |  |  | CCn1ncc(CN(C)C(=O)c2nc(-c3cc(C)nc(NCCOC)c3)nc3ccc(Cl)cc23)c1C [Compound 611] | 312 |  |  |  | 
30 | 2.7 | 8.96 | 470 |  |  |  | CCc1ncc(CN(C)C(=O)c2nc(-c3cc(C)c4[nH]c(=O)[nH]c4c3)nc3ccc(Cl)cc23)n1C [Compound 514] | 363 |  |  |  | 

Row | SMILES | IC50 (EP300 (P300(1048-1664)); EP300, SAMDI) [nM] | IC50 (CREBBP (1084-1701); SAMDI) [nM] | IC50 ([1]; H3K18Ac in-cell western) [nM] | IC50 (EP300 (P300(1048-1664)); [3]) [nM] | IC50 (CREBBP (1084-1701); [4]) [nM] | IC50 [1, 5] [nM] | IC50 (647V cells; [2]) [nM] | IC50 ([1]; H3K18Ac in-cell western, HB-CLS-2 cells) [nM] | IC50 (647V cells; high throughput proliferation, 647V cells) [nM] | IC50 (647V cells; high throughput proliferation) [nM] | IC50 (647V cells; [6]) [nM]
31 | CCn1ncc(CN(C)C(=O)c2nc(-c3cc(C)cc(NC4CCNC4)c3)cc3ccc(Cl)cc23)c1C (centres unmarked) [Compound 383] | 5.1 | 17 |  |  |  |  |  | 190 | 63 |  | 
32 | CCn1ncc(CN(C)C(=O)c2cc(-n3cc4c(n3)CNCC4)nc3ccc(Cl)cc23)c1C [Compound 168] | 5800 | 18000 | 13000 |  |  |  |  |  |  | 18000 | 
